We go through three compounds from patent US20080247991A1, “Solution Additives For the Attenuation of Protein Aggregation” (priority 2004, published 2008).

For one assay, the target named is T1, RNase T1 (Aspergillus oryzae, UniProt P00651).
T1 sequence (P00651 27-130): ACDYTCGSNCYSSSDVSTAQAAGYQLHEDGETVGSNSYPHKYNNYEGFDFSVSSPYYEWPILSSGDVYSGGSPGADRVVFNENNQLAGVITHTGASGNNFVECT
As to conditions: interpolated to mbulk 1.10 m; cited from earlier work.

The target of assay [1] is T2, carbonic anhydrase II (Bos taurus, UniProt P00921). The experiment in a line: Size exclusion HPLC of multimers formed during refolding of carbonic anhydrase. The arrangement: purchased Sigma-Aldrich C2522; species or system bovine. Particulars: for A2, percentage of total carbonic anhydrase / A3-5, percentage of total carbonic anhydrase / A6-15, percentage of total carbonic anhydrase / M (monomer), percentage of total carbonic anhydrase / Large multimers, percentage of total carbonic anhydrase: [U]0 = 20 μM, 0.5 M additive; for Large multimers, percentage of total carbonic anhydrase: inferred by difference. The procedure: Size exclusion HPLC experiments were performed to analyze the distribution of multimers formed during refolding. CA was refolded with three different additives, 0.5M NaCl, 0.5M GuHCl, and 0.5M ArgHCl, relative to a base refolding buffers of 0.5M GuHCl, as done in the esterase activity assays above. […] Other than this protein concentration difference, these experiments allow direct comparison of how an additional 0.5M of the three different cations affect refolding.
T2 sequence (P00921 whole entry): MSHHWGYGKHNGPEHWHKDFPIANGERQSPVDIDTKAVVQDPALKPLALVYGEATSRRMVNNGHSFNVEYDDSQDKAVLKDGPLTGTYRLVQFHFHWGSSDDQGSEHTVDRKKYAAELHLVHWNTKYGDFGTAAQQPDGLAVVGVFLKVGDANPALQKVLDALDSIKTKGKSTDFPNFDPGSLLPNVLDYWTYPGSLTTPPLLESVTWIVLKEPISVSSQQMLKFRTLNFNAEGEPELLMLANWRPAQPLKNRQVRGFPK
The samples were not filtered prior to introduction into the HPLC column.
Size Exclusion HPLC—Size exclusion HPLC (SE-HPLC) experiments were performed on a Beckman System Gold HPLC instrument equipped with a Tosohaas G3000SWXL size exclusion column and a UV detector. 30 μl samples were introduced to the column by a constant flow of 1 ml/min mobile phase. Each sample ran for 15 minutes, with carbonic anhydrase eluting between 6 and 10 minutes, depending on its molecular weight and buffer. […] A mixture of lysozyme, carbonic anhydrase, and bovine serum albumin (monomer and dimer) was used as a standard to calibrate molecular weight to retention time. Using this calibration curve and the breakthrough time of the column, the largest multimer that could pass through the column was a 15-mer. When significant mass was missing from a chromatogram, large multimers were quantitated by difference. The presence of large multimers was confirmed via turbidity or dynamic light scattering for each buffer. The instrument was cleaned with 30 μl injections of 4M GuHCl, a denaturing concentration found to dissociate and elute precipitates and large soluble carbonic anhydrase multimers.

Assay [2] concerns the target T2, carbonic anhydrase II. The experiment in a line: Carbonic anhydrase refolding yield by esterase activity (pNPA).
Description: Esterase activity assays were performed as a function of initial unfolded protein concentration and buffer composition to determine how equimolar concentrations of NaCl, ArgHCl, and GuHCl each affected refolding yield (FIG. 16).
High concentrations of carbonic anhydrase (>300 μM) were denatured in 6M GuHCl and equilibrated overnight. Refolding was initiated by dilution to 0.5M GuHCl with 50 mM Tris-HCl buffer, pH 7.5. This final GuHCl concentration was selected because it yields a mixture of active, refolded protein and aggregates. The distribution of this mixture was analyzed via esterase activity, size exclusion HPLC, and dynamic light scattering as described above.
Carbonic Anhydrase Esterase Activity—Esterase activity of carbonic anhydrase was assessed using para-nitrophenylacetate (pNPA) as the substrate as described previously. […] Briefly, 10 μl samples of carbonic anhydrase solution were added to 500 μl of Tris-HCl, pH 7.5 and 50 μl of 50 mM pNPA in acetonitrile. Kinetics of hydrolysis of pNPA was observed by the increase in absorbance at 400 nm due to the appearance of the paranitrophenolate ion (pNP^−). In all cases, the observed hydrolysis rate in absorbance units per second (AU/s) under these conditions was constant (pseudo-zero order). Hydrolysis rates were corrected for the hydrolysis of pNPA by the buffer for each type of buffer used. […] The active protein concentration data was reproducible to within 5-8% in replicated experiments.
Assay [3] addresses T2, carbonic anhydrase II. Details: purchased Sigma-Aldrich C2522. As to conditions: 1.0M GuHCl, carbonic anhydrase less than 30 μM; previous studies; cited from earlier work.
Assay [4] deals with T3, insulin binding to immobilized monoclonal anti-insulin (Homo sapiens, UniProt P01308).
T3 construct: purchased Sigma-Aldrich (insulin); Fitzgerald Industries (antibody) I8530; 10-130 clone M322214
T3 sequence (P01308 25-54 limits assumed): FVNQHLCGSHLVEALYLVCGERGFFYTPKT
T3 sequence (P01308 90-110 limits assumed): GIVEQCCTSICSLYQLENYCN
The assay can be described thus: Surface plasmon resonance (Biacore 3000): globular protein association/dissociation kinetics in buffer with additive. As to conditions: for effect on association rate of insulin and anti-insulin / effect on dissociation rate of insulin and anti-insulin: 0.5M, relative to 0.5M NaCl control. The procedure:
Surface plasmon resonance experiments were conducted to measure the effect of added ArgHCl and GuHCl on the kinetics of globular protein association and dissociation versus an equimolar salt control (NaCl). The data set shown in the figure is a composition of 8 different concentration runs plus replicates, for a total of 16 runs. At t=140 sec, the flow cell with immobilized anti-insulin was exposed to a constant concentration of insulin in the range of 2 to 188 nM for 3 minutes. During this 3 minutes, the antibody and antigen were free to associate and dissociate. The net reaction is the binding of free antigen in solution, resulting in an increase in detector response proportional to the mass of antigen bound. At t=320 sec, the insulin concentration in the flow cell inlet is returned to zero, and the bound antigen then dissociates from the surface. All 16 runs were simultaneously fit to a binding model by minimizing the squared residuals to yield the association and dissociation rate constants, ka and kd. This process was repeated to yield association, dissociation, and equilibrium constant data for the model systems in various buffers as shown in Table 4.
Globular Protein Association Kinetics—Protein association and dissociation rate constants, ka and kd, were measured for globular proteins via surface plasmon resonance on a Biacore 3000 instrument. Monoclonal anti-insulin was immobilized on a Biacore CM5 sensor chip via amine coupling. The amount of immobilized antibody was selected to give a detector response in the range of 50-100 RU when antigen was present. A reference surface was created by activating and deactivating the surface without coupling an antibody to it.
Different concentrations of insulin in the nanomolar range ([…]) were prepared by dilution and injected serially into the antibody-containing and reference flow cells. […] Pocker, Y. & Biswas, Subhasis, B. (1981) Biochemistry 20, 4354-4361. The dissociation rate was sufficiently fast in buffer that a regeneration buffer was not required. Kinetic constants were extracted by simultaneous fitting of ka and kd to each set of sensorgrams using a 1:1 kinetic model in the BIAevaluation 3.0 software package.

A further assay deals with T4, RNase A (Bos taurus, UniProt P61823).
T4 sequence (P61823 27-150): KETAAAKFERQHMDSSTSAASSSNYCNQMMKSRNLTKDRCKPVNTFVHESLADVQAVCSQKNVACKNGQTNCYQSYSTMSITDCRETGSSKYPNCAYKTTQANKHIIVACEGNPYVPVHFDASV
Particulars: interpolated to mbulk 0.91 m; cited from earlier work.

The mark [5] stands for this setting: 0.5 M additive in HBS-EP, pH 7.4, estimated error 15%.
The mark [6] stands for this setting: 0.5 M additive, relative to HBS-EP + 0.5 M NaCl.

Marks after values point to notes of the source that are not given here.

In the case of `NC(N)=O` [Urea], the “Experimental ΓXP” value at RNase T1 was 6.4^a.

With `Cl.N=C(N)N` [GuHCl, Guanidinium chloride], the “yield of monomeric protein” value at carbonic anhydrase II [1] (0.5M added, versus 0.5M NaCl) is “significantly increased”. In addition, on carbonic anhydrase II [1] (time 2 min), the “A2, percentage of total carbonic anhydrase” value (from here on “A2, percentage”) turned out to be 39%; the “A3-5, percentage of total carbonic anhydrase” value (from here on “A3-5, percentage”) is recorded as 8%; the “A6-15, percentage of total carbonic anhydrase” value (“A6-15, percentage” below) is recorded as 0%; the “M (monomer), percentage of total carbonic anhydrase” value (“M (monomer), percentage” below) came out at 42%. The “Large multimers, percentage of total carbonic anhydrase” value (from here on “Large multimers, percentage”) at carbonic anhydrase II [1] (time 2 min) turned out to be 11%. At carbonic anhydrase II [1] (time 20 min), the “A2, percentage” value stood at 3%; the “A3-5, percentage” value is recorded as 6%; the “A6-15, percentage” value was 0%; the “M (monomer), percentage” value is listed as 82%. Also, at carbonic anhydrase II [1] (time 20 min), the “Large multimers, percentage” value stood at 9%. At carbonic anhydrase II [1] (time 38 min), the “A2, percentage” value is on record as 1%; the “A3-5, percentage” value came to 5%; the “A6-15, percentage” value is reported as 0%; the “M (monomer), percentage” value is on record as 85%. Also, the “Large multimers, percentage” value at carbonic anhydrase II [1] (time 38 min) was 9%. In addition, on carbonic anhydrase II [1] (time 1500 min), the “A2, percentage” value came to 0%; the “A3-5, percentage” value amounted to 2%; the “A6-15, percentage” value worked out at 0%; the “M (monomer), percentage” value was determined as 89%. For the same compound, at carbonic anhydrase II [1] (time 1500 min), the “Large multimers, percentage” value is reported as 9%. Further, at carbonic anhydrase II [2] (0.5 M additive, relative to 0.5M NaCl, base buffer 0.5 M GuHCl), the α/α0 is 8.2. In addition, the “α (refolding selectivity parameter, kr/kagg)” value on carbonic anhydrase II [2] (0.5 M additive, base buffer 0.5 M GuHCl, fit to second-order aggregation model) was determined as 77 µM. In addition, the “order of yield of active protein as a function of buffer additive” value at carbonic anhydrase II [2] (equimolar (0.5M) additives) was “NaCl<<ArgHCl<GuHCl”. Also, the “yield of native protein” value on carbonic anhydrase II [3] is reported as roughly 100%. In assay [4] (setting [5]), the ka was 40000 M⁻¹ s⁻¹ and the kd was 0.094 s⁻¹. Further, in assay [4] (setting [6]), the ka/ka0 was determined as 0.91 and the kd/kd0 worked out at 6.7. In assay [4], the “effect on association rate of insulin and anti-insulin” value is reported as “insignificant effect”; the “effect on dissociation rate of insulin and anti-insulin” value was “significantly increases”. In assay [4] (listed as guanidinium), the “effect on association rate of insulin and anti-insulin” value is listed as “little effect”; the “effect on dissociation rate of insulin and anti-insulin” value is “accelerated”.

For the compound `OCC(O)CO` [Glycerol], the “Experimental ΓXP” value on RNase A is recorded as −1.7 ± 0.8^b.
